Article PMC6429262, “Design and Synthesis of Novel Anti-Proliferative Emodin Derivatives and Studies on their Cell Cycle Arrest, Apoptosis Pathway and Migration” (Molecules, 2019)

Columns and labels:
HepG2 cells [1] = assay: Wound healing assay (cell migration); type: cell-based; details: Homo sapiens, 48 h, read-out: Inhibition (%) of migration (cell inhibitory rate)
Protocol: To evaluate the effect of compound 7a on cancer migration, a wound healing assay was conducted to determine whether compound 7a could prevent HepG2 cell migration. After culturing HepG2 cells for 48 h in the presence and absence of compound 7a at 0, 0.25, 0.5, and 1 μM, a pipette tip was streaked through the cell culture, resulting in a cell deficient space. The territory recovered by the HepG2 cells was used to observe the migration inhibition capability of compound 7a.
HepG2 cells were grown in DMEM medium containing growth factors at a cell density of 1 × 10^5 cells/mL for 24 h. A disposable […] plastic pipette tip was used to scratch the monolayer of cells in a streaking motion. Compounds were added to the streaked cell culture at the indicated concentrations. The streaked cells were then cultured in serum-free medium for an additional 48 h and photographed. To quantify the experimental results, the % cell inhibitory rate was calculated by the equation: cell inhibitory rate (%) = (1 − Ddrug/Dcontrol) × 100%, where Ddrug is the mean distance of cell migration in drug group and Dcontrol is the mean distance of cell migration in control group. Pictures of the initial wounded monolayers were compared with the corresponding pictures of cells at the end of the incubation, and data were presented as mean ± SD from three independent experiments.

procaspase-3 = assay: Western blot, procaspase-3; type: cell-based, human; details: 48 h
Protocol: (§1) Total cell lysates from cultured HepG2 cells treated with different concentrations of compound 7a for 48 h were obtained by lysing the cells in ice-cold RIPA buffer (1 PBS, 1% NP-40, 0.5% sodium deoxycholate and 0.1% SDS) containing […] PMSF, 5 mg/mL aprotinin, 5 mg/mL leupeptin, 5 mg/mL pepstatin and […] NaF. After centrifugation at 12,000 rpm for 10 min, the protein in the supernatant was quantified by the Bradford method (BIO-RAD, Hercules, CA, USA) using a Multimode Varioscan instrument (Thermo Fischer Scientific, Waltham, MA, USA). Twenty micrograms of protein per lane was applied in 12% SDS polyacrylamide gel. After electrophoresis, the protein was transferred to a polyvinylidine difluoride membrane (Amersham Biosciences, Marlborough, MA, USA). The membrane was blocked at room temperature for 2 h in TBST containing 5% blocking powder (Santa Cruz, Dallas, TX, USA). The membrane was washed with TBST for 5 min, and the primary antibody was added and incubated at 4 °C overnight (O/N). Bax (5023, CST, Danvers, MA, USA), Bcl-2 (15071, CST), cytochrome c (4280, CST), procaspase-9 (AB138412, Abcam, Cambridge, MA, USA), procaspase-3 (AB32150, Abcam), caspase-3 (66470-2-lg, Proteintech Group, Rosemont, IL, USA) and GAPDH (AB8245, Abcam) antibodies were employed. After three TBST washes, the membrane was incubated with the corresponding horseradish peroxidase-labeled secondary antibody (1:5000) (Santa Cruz) at room temperature for 2 h. Membranes were washed with TBST for 15 min five times and the protein blots were visualized with chemiluminescence reagent (Thermo Fischer Scientific Ltd.). The X-ray films were developed with a developer and fixed with fixer solution. The grey levels were analyzed using ImageQuant LAS 4000 system (GE, Marlborough, MA, USA).

L02 cells = assay: Cytotoxic activity against human normal liver cells (L02); type: cell-based
caspase-3 = assay: Western blot, cleaved caspase-3; type: cell-based, human; details: 48 h
Protocol: as §1

Bax = assay: Western blot, Bax; type: cell-based, human; details: 48 h
Protocol: as §1

HepG2 cells [2] = assay: Apoptosis analysis, annexin V-FITC/PI flow cytometry; type: cell-based, human; details: for Apoptosis percentage, Early apoptosis / Apoptosis percentage, Late apoptosis / Apoptosis percentage, Overall apoptosis: mean ± SD of three experiments; for percentage of apoptotic cells: Figure 3A
Protocol: In order to verify whether compound 7a is able to induce apoptosis in HepG2 cells, we utilized FITC-Annexin V/PI staining and estimated the percentage of apoptotic cells by flow cytometry. We noted a concentration-dependent increase in the percentage of apoptotic cells when the cells were treated with compound 7a for 48 h at concentrations 2.5, 5, and 10 μM. […] Apoptosis was discriminated with the annexin V-FITC/PI test. Cells were seeded at 2 × 10^5/well in 10% FBS-DMEM into 6-well plates and treated with compounds 7a for 48 h. The cells were washed twice with cold phosphate buffered saline (PBS) and then resuspend in 1× Binding Buffer (0.1M Hepes/NaOH (pH 7.4), 1.4M NaCl, 25 mM CaCl2)) at a concentration of 1 × 10^5 cells/mL. 100 μL of the solution (1 × 10^4 cells) was transferred to a 5 mL culture tube, and 5 μL of FITC Annexin V (BD, Pharmingen, Franklin Lakes, NJ, USA) and 5 μL PI were added to each tube. The cells were gently resuspended by vortexing, and then were incubated for 30 min at RT (25 °C) in the dark. After incubation, 200 μL PBS was added to each tube. The analysis was performed with the system software (CellQuest; BD Biosciences, Franklin Lakes, NJ, USA). Analysis is as follows: lower left quadrant, viable cells (Annexin V−/PI−); lower right quadrant, early apoptotic cells (Annexin V+/PI−); upper right quadrant, late apoptotic cells (annexin V+/PI+); upper left quadrant, necrotic cells (annexin V−/PI+). The percentage of cells positive for PI and Annexin V-FITC was reported inside the quadrants.

cytochrome c = assay: Western blot, cytochrome c; type: cell-based, human; details: 48 h
Protocol: as §1

procaspase-9 = assay: Western blot, procaspase-9; type: cell-based, human; details: 48 h
Protocol: as §1

**Q.** Which inhibition at 0.25 µM (HepG2 cells [1]; HepG2, 0.25 μM) does the source give for `Cc1cc(O)c2c(c1)C(=O)c1cc(OCCCOC(=O)[C@@H](C)N)cc(O)c1C2=O.O=C(O)C(F)(F)F` [Compound 7a, (R)-1-(3-(4,5-Dihydroxy-7-methyl-9,10-dioxo-9,10-dihydroanthracen-2-yloxy)propoxy)-1-oxopropan-2-aminium 2,2,2-trifluoroacetate] here?
**A.** 12.6 ± 1.69%

**Q.** And the inhibition at 0.5 µM (HepG2 cells [1]; HepG2, 0.5 μM)?
**A.** 23.7 ± 0.59%

**Q.** What about the inhibition at 1 µM (HepG2 cells [1]; HepG2, 1 μM) of the same molecule?
**A.** 40.2 ± 2.92%

**Q.** And the “Relative expression level, Full length procaspase-3” value (procaspase-3; HepG2, 2.5 μM)?
**A.** 0.78 ± 0.012

**Q.** And the “Relative expression level, procaspase-3” value (procaspase-3; HepG2, 2.5 μM)?
**A.** 0.510 ± 0.132

**Q.** And the “Relative expression level, Full length procaspase-3” value (procaspase-3; HepG2, 5 μM)?
**A.** 0.220 ± 0.019

**Q.** What about the “Relative expression level, procaspase-3” value (procaspase-3; HepG2, 5 μM) of the same molecule?
**A.** 0.317 ± 0.031

**Q.** What about the “Relative expression level, Full length procaspase-3” value (procaspase-3; HepG2, 10 μM) of the same molecule?
**A.** 0.152 ± 0.009

**Q.** And the “Relative expression level, procaspase-3” value (procaspase-3; HepG2, 10 μM)?
**A.** 0.170 ± 0.053

**Q.** And the IC50 (L02 cells; Homo sapiens, L02, human normal liver L02 cells)?
**A.** 14 ± 0.27 µM

**Q.** What about the IC50 (L02 cells; human normal liver L02 cells) of the same molecule?
**A.** 18.5 ± 0.19 µM

**Q.** And the “Relative expression level, Cleaved Caspase-3” value (caspase-3; HepG2, 2.5 μM)?
**A.** 0.056 ± 0.011

**Q.** What about the “Relative expression level, Cleaved Caspase-3” value (caspase-3; HepG2, 5 μM) of the same molecule?
**A.** 0.143 ± 0.013

**Q.** And the “Relative expression level, Cleaved Caspase-3” value (caspase-3; HepG2, 10 μM)?
**A.** 0.185 ± 0.026

**Q.** What about the “Relative expression level, Bax” value (Bax; HepG2, 2.5 μM) of the same molecule?
**A.** 1.180 ± 0.046

**Q.** And the “Relative expression level, Bax” value (Bax; HepG2, 5 μM)?
**A.** 1.347 ± 0.081

**Q.** What about the “Relative expression level, Bax” value (Bax; HepG2, 10 μM) of the same molecule?
**A.** 1.593 ± 0.112

**Q.** And the “Apoptosis percentage, Early apoptosis” value (HepG2 cells [2]; HepG2, 2.5 μM)?
**A.** 2.91 ± 0.45%

**Q.** And the “Apoptosis percentage, Late apoptosis” value (HepG2 cells [2]; HepG2, 2.5 μM)?
**A.** 3.69 ± 0.48%

**Q.** What about the “Apoptosis percentage, Overall apoptosis” value (HepG2 cells [2]; HepG2, 2.5 μM) of the same molecule?
**A.** 6.59 ± 0.93%

**Q.** What about the “percentage of apoptotic cells” value (HepG2 cells [2]; HepG2, 5 μM, 48 h) of the same molecule?
**A.** 22.2%

**Q.** What about the “Apoptosis percentage, Early apoptosis” value (HepG2 cells [2]; HepG2, 5 μM) of the same molecule?
**A.** 15.93 ± 0.76%

**Q.** And the “Apoptosis percentage, Late apoptosis” value (HepG2 cells [2]; HepG2, 5 μM)?
**A.** 7.51 ± 0.68%

**Q.** What about the “Apoptosis percentage, Overall apoptosis” value (HepG2 cells [2]; HepG2, 5 μM) of the same molecule?
**A.** 23.450 ± 1.07%

**Q.** And the “percentage of apoptotic cells” value (HepG2 cells [2]; HepG2, 10 μM, 48 h)?
**A.** 50.7%

**Q.** What about the “Apoptosis percentage, Early apoptosis” value (HepG2 cells [2]; HepG2, 10 μM) of the same molecule?
**A.** 37.73 ± 0.97%

**Q.** And the “Apoptosis percentage, Late apoptosis” value (HepG2 cells [2]; HepG2, 10 μM)?
**A.** 14.63 ± 1.17%

**Q.** What about the “Apoptosis percentage, Overall apoptosis” value (HepG2 cells [2]; HepG2, 10 μM) of the same molecule?
**A.** 52.00 ± 1.41%

**Q.** And the viability at 2.5 µM (HepG2 cells [2]; Homo sapiens, HepG2, 2.5 μM, 48 h, representative plot, read-out: Q4 (Annexin V−/PI−, viable cells))?
**A.** 93.3%

**Q.** And the viability at 5 µM (HepG2 cells [2]; Homo sapiens, HepG2, 5.0 μM, 48 h, representative plot, read-out: Q4 (Annexin V−/PI−, viable cells))?
**A.** 74.2%

**Q.** And the viability at 10 µM (HepG2 cells [2]; Homo sapiens, HepG2, 10 μM, 48 h, representative plot, read-out: Q4 (Annexin V−/PI−, viable cells))?
**A.** 46.9%

**Q.** And the “Relative expression level, cytochrome c” value (cytochrome c; HepG2, 2.5 μM)?
**A.** 1.407 ± 0.015

**Q.** And the “Relative expression level, cytochrome c” value (cytochrome c; HepG2, 5 μM)?
**A.** 1.663 ± 0.110

**Q.** And the “Relative expression level, cytochrome c” value (cytochrome c; HepG2, 10 μM)?
**A.** 2.220 ± 0.387

**Q.** What about the “Relative expression level, procaspase-9” value (procaspase-9; HepG2, 2.5 μM) of the same molecule?
**A.** 0.600 ± 0.082

**Q.** What about the “Relative expression level, procaspase-9” value (procaspase-9; HepG2, 5 μM) of the same molecule?
**A.** 0.297 ± 0.058

**Q.** What about the “Relative expression level, procaspase-9” value (procaspase-9; HepG2, 10 μM) of the same molecule?
**A.** 0.223 ± 0.029
